# Reference: PMC5603908 (Biochemistry, 2017)
# No end group written: not given here.
# Assays:
# E. coli ATCC 25922 = conditions: minimal inhibitory concentration, microdilution method
# S. aureus USA300 = conditions: after peptide treatment; cited from earlier work
# [1] = tested on: methicillin-resistant S. aureus (MRSA) USA300; conditions: minimal inhibitory concentration, microdilution method
# human HEK293 cells = conditions: cited from earlier work
# human HaCaT cells = conditions: cited from earlier work
Substance,E. coli (MIC) (E. coli ATCC 25922),HL50 (human red blood cells),time to entry of non-permeable dye FITC into S. aureus (S. aureus USA300),S. aureus (MIC) [1],cytotoxicity (human HEK293 cells),cytotoxicity (human HaCaT cells)
RWWLRRIW-NH2 [W1R],25 µM,>200 µM,–,–,–,–
WWWLRKIW-NH2 [TetraF2W-RK],–,–,30 s,–,–,–
WRWLRRIW-NH2 [W2R],25 µM,100 µM,–,6.2 µM,–,–
WWWLRRIR-NH2 [W8R],25 µM,>200 µM,–,–,–,–
WWWRRRIW-NH2 [L4R],25 µM,>200 µM,–,–,–,–
WWWLRRRW-NH2 [I7R],6.2 µM,150 µM,–,3.1 µM,–,–
WWRLRRIW-NH2 [W3R],25 µM,>200 µM,–,–,–,–
WWWLRRIW-NH2 [WT],6.2 µM,35 µM,–,3.1 µM,less cytotoxic,less cytotoxic
